Assay results reported in patent US20080193505A1, “Nutritional Compositions For Modulating Vitamin C Bio-Availability” (Nestec S.A., priority 2005, published 2008).

Tested on: SVCT1
Assay: Real-time PCR in-vitro test of SVCT1 gene expression in primary keratinocytes
Type: cell-based, human
Conditions: NHEK; 10 μM
Method: Confluent primary keratinocytes (NHEK) were treated with a test compound or subsequently used for reverse transcription and real-time PCR analysis of SVCT1 and SVCT2. 18S-rRNA and GAPDH mRNA analysis served as endogenous control (housekeeping genes).
Primary adult epidermal keratinocytes (NHEK) for Cambrex Company (USA, Ordering number: CC-2501) have been used in this study. They were grown in KGM medium (Cambrex Company, USA, Ordering number: CC-3101 and CC-4131) on fibronectin and collagen type I coated plastic dishes (6- or 12-well plates) at 37° C. and 5% CO2 and expanded until passage 4 where they were used for further experiments.
NHEK cells at passage 4 were seated in 6 well plates at a density of 5000 cells/cm2, determined by means of a Thoma chamber under a light microscope. Cells were grown to 100% confluence within 5-6 days with medium changed every second day and were further used for in vitro-test for gene expression as depicted schematically in FIG. 1.
After removal of the supernatant the cells were rinsed twice with Dubellco's phophate buffered saline (PBS, Sigma, Germany), cells were lysed with 350 μl of a lysis buffer (Buffer RL, Qiagen AG, Basel, Switzerland) containing 1% β-mercaptoethanol (Sigma, USA) and total RNAs from cell lysates were extracted using the QIAshredder column and the RNeasy® Mini Kit (Qiagen AG, Basel, Switzerland). RNA quantification was performed using the Ribogreen® RNA quantitation Kit (Molecular Probes, USA) on 96-well plates and a fluorescence microplate reader (Spectra fluor plus F 129005, Tecan). The measurements were done in duplicate. The samples were diluted either 1:680 or 1:3400 in a final volume of 100 μl 1×TE buffer. Dilutions of the ribosomal RNA in a concentration of 1, 0.5, 0.1, 0.02, 0 μg/ml were used as standards and the measurement was performed by fluorimetry at 485 nm and 538 nm. RNA quantification was then calculated compared to the standard curve. Integrity of RNA was controlled using agarose gel electrophoresis (1% agarose in TBE: 90 mM Tris/HCl pH 8.0, 80 mM Boric acid, 3 mM EDTA in ddH2O).
For reverse transciption 2 μl pd(N)6 random hexamers (Amersham Biosciences, Art. n° 272080, England) and 1 μl dNTP (10 mM, Amersham Biosciences, Art. n° 272050, −60, −70, −80, England) were added to 2 μg RNA in nuclease-free water (Ambion, USA) in a final volume of 12 μl. After 5 min incubation at 65° C., samples were immediately placed on ice and quickly centrifuged. Then, 4 μl of 5× first strand buffer (250 mM NaCl, 0.1 mM EDTA, 1 mM DTT, 0.1% (V/v) NP-40, 50% (v/v) glycerol), 2 μl of dithiothreitol, 1 μl of RNase inhibitor and 1 μl of reverse transcriptase SuperScript II RNase H^− (SUPERase-In, 20 U/μl, Ambion, Art. n° 2694, USA) were added (final volume 20 μl). […] The sample was then kept in the freezer at −20° C. until further use.
The real-time PCR was performed according to the TaqMane method in 96 well plates (96WP) using assays-on-demand primer and probes (SVCT1: Hs00195277_ml, SVCT2:, Hs00192765_ml, 18S-rRNA: 4310893E, GAPDH: 4310884E Applied Biosystems, USA). Analysis was done in triplicate using a master mix (3.5×) which contained 43.7 μl TaqMan® 2× Universal PCR master mix (Applied Biosystems, USA), 4.4 μl assays-on-demand primers and probes, 21.9 μl nuclease-free water and 17.5 μl cDNA (87.5 ng=[…] per replicate). Triplicates of 25 μl master mix were loaded on a 96 well ABI PRISM reaction plate (Applied Biosystems, USA), covered with a transparent optical adhesive cover and centrifuged three times at 200 rpm for 1 min or until all air-bubbles had been removed. The PCR reaction was then performed in the ABI PRISMS 7000 Sequence Detection System (Applied Biosystems, USA) using the following temperature program: activation of the enzyme: 2 min at 50° C.; denaturation: 10 min at 95° C. and 40 cycles target amplification: 15 sec […] at 95° C. and 1 min extension at 60° C.

Question: `Oc1ccc(C2COc3cc(O)ccc3C2)cc1` (racemic) [equol, (R,S)-equol] was tested. Which “influence on expression” value did it give?
Answer: did not show any influence

Question: With `COc1cc(/C=C/C(=O)CC(=O)/C=C/c2ccc(O)c(OC)c2)ccc1O` [curcumin] as the molecule, how does the “influence on expression” value read?
Answer: did not show any influence

Question: Which “influence on expression” value does the source give for `O=c1c(-c2ccc(O)cc2)coc2cc(O)cc(O)c12` [genistein] here?
Answer: did not show any influence

Question: With `COc1ccc([C@@H]2CC(=O)c3c(O)cc(O)cc3O2)cc1O` [hesperetin/hesperidin, hesperetin] as the molecule, how does the “influence on expression” value read?
Answer: did not show any influence

Question: With `O=c1c(O)c(-c2ccc(O)c(O)c2)oc2cc(O)cc(O)c12` [quercitin, quercetin] as the molecule, how does the “influence on expression” value read?
Answer: did not show any influence

Question: “(−) epigallocatechin gallate [(−) epigallocatechin gallate (EGCg)]” was tested. Which “influence on expression” value did it give?
Answer: did not show any influence

Same assay, conditions: summary statement in description

Question: With `[Cl-].[Cl-].[Zn+2]` [ZnCl2] as the molecule, how does the “transcription of SVCT1 mRNA” value read?
Answer: significantly down-regulated

Question: How did the “transcription of SVCT1 mRNA” value turn out when `CC1=C(/C=C/C(C)=C/C=C/C(C)=C/C(=O)O)C(C)(C)CCC1` [all-trans retinoic acid] was run?
Answer: significantly down-regulated

Question: With `C[S+]([O-])CCCCN=C=S` (stereo not shown) [sulforaphane] as the molecule, how does the “transcription of SVCT1 mRNA” value read?
Answer: significantly down-regulated

Tested on: HaCaT cells
Assay: 14C-labelled ascorbic acid up-take in HaCaT cells (oxidative stress model)
Type: cell-based, human
Conditions: iron salt treated cells
Method: Confluent HaCaT cells were treated for 18-24 h with a test compound or control, incubated with ^14C-labelled ascorbic acid at two different concentrations (5 μM and 250 μM) for 5 min, 10 min, 30 min, 60 min, 90 min and 120 min. Cells were lysed and the radiolabel in the supernatant and the cell lysate was quantified by scintillation counting.
Confluent HaCaT cells were treated for 2 h with 50 μM menadione (black rhombus), 500 μM H2O2 (triangles), conditioned medium obtained from UV-irradiated HaCaT cells (squares) or control (grey rhombus) and subsequently incubated with 50 μM ^14C-labelled ascorbic acid for 5 min, 10 min, 30 min, 60 min, 90 min and 120 min. Cells were lysed and the radiolabel in supernatant and cell lysate quantified by scintillation counting.
Confluent HaCaT cells were treated with 50 μM FeCl3 (triangles) or controls (grey rhombus) for 24 h and for additional 2 h with 50 μM menadione (filled symbols) or controls (open symbols). Subsequently, cells were incubated with 50 μM ^14C-labelled ascorbic acid for 5 min, 10 min, 30 min, 60 min, 90 min and 120 min, cells were lysed and the radiolabel in supernatant and cell lysate quantified by scintillation counting.
Confluent HaCaT cells were incubated with or without test compound (aqueous FeCl3 solution in different concentrations) for 18-24 h and eventually stressed for further 2 h with 50 μM menadione, 500 μM H2O2 or conditioned medium obtained from UV-irradiated HaCaTs. Then cells were washed twice with PBS and incubated with 300 μl or 400 μl of ^14C-labelled ascorbic acid at different concentrations of (5 μM, 50 μM or 250 μM) by diluting the prepared stock solution in the appropriate amount of transfer buffer. After incubation at 37° C. for different periods of time (5, 10, 30, 60, 90 and 120 min) cells were immediately placed on ice, supernatant removed and frozen, cells washed twice with ice-cold PBS and finally harvested with a cell scraper and 300 μl or 400 μl urea buffer (9.5M urea, 10 mM Tris/HCl pH 8.0, 2 mM EDTA pH 8.0). Amount of radiolabel in supernatant and cell lysate was then measured by scintillation counting of a dilution of 50 μl supernatant or 200 μl of cell lysate in 9 ml scintillation cocktail. Obtained data were analysed by blotting incubation time versus ascorbic acid up-take (either as percentage or nmolar).

Question: With `[Cl][Fe]([Cl])[Cl]` [FeCl3] as the molecule, how does the “Vitamin C uptake by the cell” value read?
Answer: enlarged

Same assay, conditions: similar conditions as for FeCl3; data not shown

Question: Which “ascorbic acid up-take in the oxidative stress model” value (shortened to “ascorbic acid up-take”) does the source give for `CC(=O)N[C@@H](CS)C(=O)O` [N-acetyl-cysteine] here?
Answer: increase ascorbic acid up-take

Question: Which “ascorbic acid up-take” value does the source give for `N[C@@H](CCC(=O)N[C@@H](CS)C(=O)NCC(=O)O)C(=O)O` [glutathione] here?
Answer: increase ascorbic acid up-take

Question: With `NCCCC[C@H](N)C(=O)O` [lysine] as the molecule, how does the “ascorbic acid up-take” value read?
Answer: increase ascorbic acid up-take
